In US11655477B2, “Methods for thaxtomin production and engineered non-native Streptomyces with increased thaxtomin production” (priority 2017, dated 2023):
Entries after “also recorded” stand apart in the source; their conditions may differ. Where two headings read alike, the source gives them in different places.

Experiments:
cellulose biosynthesis = settings: background statement; cited from earlier work
Jurkat cells = experiment: MTT assay to characterize cytotoxicity, Jurkat cells; type: cell-based, human; settings: for cytotoxicity toward Jurkat cell line (in words): PBS as negative control; for IC30 (30% inhibitory concentration) toward Jurkat cells: human T-cell leukemia Jurkat, MTT, 48 to 72 h
Experimental: (§1) PC-3 and Jurkat cells were cultured in DMEM or RPM11640 medium containing 10% fetal bovine serum and 100 U/mL penicillin and streptomycin, and maintained at 37° C. in a humidified incubator under 5% CO2. The cells (1×10^4 for Jurkat, and 5,000 for PC-3 in 100 μL) were seeded into 96-well plates and incubated overnight. Varying concentrations of purified compounds (0 μM, 12.5 μM, 25 μM, 50 μM and 100 μM) were added to the wells. After incubation at 37° C. for 48 to 72 h, 10 μL of MTT (5 mg/mL) in PBS was added and incubated for 4 h, followed by aspiration of the medium. DMSO (100 μL) was added to each well to dissolve the MTT in the wells, and the plates were agitated for 1 h for recording the absorbance at 570 nm using UV/vis microplate spectrophotometer (BioTek). Three to six replications were performed per treatment of each sample.

PC-3 cells = experiment: MTT assay to characterize cytotoxicity, PC-3 cells; type: cell-based, human; settings: for cytotoxicity toward PC-3 cell line (in words): PC-3, PBS as negative control; for IC30 (30% inhibitory concentration) toward PC-3 cells: prostate cancer PC-3, MTT, 48 to 72 h
Experimental: as §1

radish seedling = experiment: Herbicidal activity assay, radish seedling growth inhibition on agar plates; type: in vivo; settings: for herbicidal activity / growth inhibition toward radish seedling (in words): DMSO as negative control; for IC50: total seedling length after 6 days, percent inhibition relative to DMSO control, four-parameter logistic fit, read-out: I50 (herbicidal activity, radish seedling assay)
Experimental: Serial concentrations (0 to 4 μM) of thaxtomins in DMSO were added into 20 mL of 1.5% warm agar solution with gentle agitation. DMSO was included as the negative control. The solution was then poured into the plate for solidification at room temperature for 30 min. Radish seeds (Burpee) were surface disinfested, pregerminated and selected when the radicle was […] and just emerged from the seed coat. Six radish seedlings were equally located on the surface of each plate with the root ends all pointed in the same direction. Agar plates were covered, sealed with Parafilm. The seedlings in the agar plates grew at room temperature under fluorescent lighting (12 h per day for 6 days), and total seedling lengths were then recorded. Three plates were set up for each dosage of each compound. Percent inhibition relative to the mean growth response in DMSO treated control plates was then calculated. Dose-response curves were fit to a four-parameter logistic model as described in Streibig, J C, et al., 1993 (which is hereby incorporated by reference herein), and Iso values were estimated from these curves.

Compound | concentration range of inhibition of cellulose biosynthesis (cellulose biosynthesis) | cytotoxicity toward Jurkat cell line (in words) (Jurkat cells) | IC30 (30% inhibitory concentration) toward Jurkat cells (Jurkat cells) | cytotoxicity toward PC-3 cell line (in words) (PC-3 cells) | IC30 (30% inhibitory concentration) toward PC-3 cells (PC-3 cells) | herbicidal activity / growth inhibition toward radish seedling (in words) (radish seedling) | IC50 (radish seedling) | IC50 (radish seedling; Raphanus sativus, 144 h)
CN1C(=O)[C@](O)(Cc2cccc(O)c2)N(C)C(=O)[C@@H]1Cc1c[nH]c2cccc([N+](=O)[O-])c12 [Compound 1, thaxtomin A, reference compound] | in the nM range | weak cytotoxicity | 70.84 ± 16.68 µM | weak cytotoxicity | 80.28 ± 10.50 µM | potent growth inhibition activity | 0.45 ± 0.05 µM | –
CN1C(=O)C(O)(Cc2ccccc2O)N(C)C(=O)C1Cc1c[nH]c2cccc([N+](=O)[O-])c12 (centres unmarked) [Compound 2, ortho-thaxtomin A] | – | weak cytotoxicity | 56.46 ± 12.04 µM | weak cytotoxicity | 42.38 ± 13.62 µM | potent growth inhibition activity | 0.81 ± 0.04 µM | –
CN1C(=O)[C@](O)(Cc2ccccc2)N(C)C(=O)[C@@H]1Cc1c[nH]c2cccc([N+](=O)[O-])c12 [Compound 3, thaxtomin B] | – | weak cytotoxicity | 50.92 ± 13.17 µM | weak cytotoxicity | 37.87 ± 13.46 µM | – | – | –
CN1C(=O)[C@](O)(Cc2cccc(O)c2)N(C)C(=O)[C@@H]1Cc1c[nH]c2ccc(F)c([N+](=O)[O-])c12 [Compound 9, 5-F-thaxtomin A] | – | weak cytotoxicity | 63.26 ± 9.29 µM | weak cytotoxicity | 56.76 ± 17.12 µM | potent herbicidal activity; also recorded: potent growth inhibition activity | – | 0.56 ± 0.03 µM
